Assay results published in ChEMBL document CHEMBL1201862, “PubChem BioAssay data set” (2004).
The source made the active and inactive calls.

How the values were obtained:
[1] = inhibitors of firefly luciferase expression or activity, dose response, H4 neuroglioma cells, luminescence (AID 1990); format: functional, cell-based
[2] = Luminescence Cell-Based Dose Response HTS to Identify Inhibitors of 5'UTR Stem-Loop Driven Prion Protein mRNA Translation in H4 Neuroglioblastoma Cells. [Related pubchem assays: 1827 (Project Summary), 1813 (Primary HTS)]; format: functional
[3] = inhibitors of SNCA 5'UTR-driven reporter translation, confirmation, H4 neuroglioma cells, luminescence (AID 1988); format: functional, cell-based
[4] = target: T1, Cytochrome P450 1A2 (Homo sapiens, UniProt P05177);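 note: PubChem cytochrome P450 panel assay, CYP1A2 panel member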
T1 sequence (P05177 whole entry): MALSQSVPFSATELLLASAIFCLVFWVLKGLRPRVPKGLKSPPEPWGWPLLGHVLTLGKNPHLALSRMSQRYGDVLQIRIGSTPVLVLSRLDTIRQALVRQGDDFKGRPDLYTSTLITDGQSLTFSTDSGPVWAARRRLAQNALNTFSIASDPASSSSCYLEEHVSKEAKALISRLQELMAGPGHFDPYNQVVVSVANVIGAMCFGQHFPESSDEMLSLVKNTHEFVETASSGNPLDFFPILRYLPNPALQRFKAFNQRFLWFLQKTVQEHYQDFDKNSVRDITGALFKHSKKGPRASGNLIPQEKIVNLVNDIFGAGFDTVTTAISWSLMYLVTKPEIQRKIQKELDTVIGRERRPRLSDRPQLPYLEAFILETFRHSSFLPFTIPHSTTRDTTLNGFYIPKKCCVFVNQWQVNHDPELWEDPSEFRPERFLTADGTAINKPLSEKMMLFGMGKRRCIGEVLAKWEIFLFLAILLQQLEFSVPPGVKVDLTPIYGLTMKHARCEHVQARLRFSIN

[5] = target: Cytochrome P450 2C19 (Homo sapiens, UniProt P33261); experiment: Cytochrome panel assay with activity outcomes. Panel member name: p450-cyp2c19 Compounds with AC50 equal or less than 10 uM are considered active; format: functional
Sequence of Cytochrome P450 2C19 (P33261 whole entry): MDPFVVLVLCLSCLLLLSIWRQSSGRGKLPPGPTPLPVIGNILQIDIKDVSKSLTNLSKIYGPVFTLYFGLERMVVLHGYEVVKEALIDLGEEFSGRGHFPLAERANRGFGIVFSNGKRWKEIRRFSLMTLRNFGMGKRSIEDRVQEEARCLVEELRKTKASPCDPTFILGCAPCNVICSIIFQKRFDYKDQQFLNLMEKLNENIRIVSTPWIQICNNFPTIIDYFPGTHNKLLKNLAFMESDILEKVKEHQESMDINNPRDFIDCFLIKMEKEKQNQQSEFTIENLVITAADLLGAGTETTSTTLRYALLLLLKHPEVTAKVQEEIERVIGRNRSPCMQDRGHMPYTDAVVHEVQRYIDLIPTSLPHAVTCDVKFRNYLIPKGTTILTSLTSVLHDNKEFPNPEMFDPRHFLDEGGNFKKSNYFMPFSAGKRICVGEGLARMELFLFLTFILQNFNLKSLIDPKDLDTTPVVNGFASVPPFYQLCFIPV

[6] = target: Cytochrome P450 2D6 (Homo sapiens, UniProt P10635);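 note: CYP2D6 member of a cytochrome P450 panel assay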
Sequence of Cytochrome P450 2D6 (P10635 whole entry): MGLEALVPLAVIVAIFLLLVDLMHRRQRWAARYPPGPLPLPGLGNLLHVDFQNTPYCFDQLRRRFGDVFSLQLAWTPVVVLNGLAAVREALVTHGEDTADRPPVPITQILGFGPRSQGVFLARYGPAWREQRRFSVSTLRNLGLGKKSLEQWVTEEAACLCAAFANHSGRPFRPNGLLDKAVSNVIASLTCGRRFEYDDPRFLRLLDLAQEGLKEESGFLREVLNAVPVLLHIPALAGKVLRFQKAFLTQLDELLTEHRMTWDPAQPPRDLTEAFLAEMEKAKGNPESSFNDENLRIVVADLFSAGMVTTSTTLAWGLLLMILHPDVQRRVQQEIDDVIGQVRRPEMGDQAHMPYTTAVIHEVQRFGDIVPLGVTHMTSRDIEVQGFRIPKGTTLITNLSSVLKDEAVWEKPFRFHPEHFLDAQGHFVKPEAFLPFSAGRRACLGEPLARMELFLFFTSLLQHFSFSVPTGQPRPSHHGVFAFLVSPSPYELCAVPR

[7] = target: Cytochrome P450 2C9 (Homo sapiens, UniProt P11712)
Sequence of Cytochrome P450 2C9 (P11712 whole entry): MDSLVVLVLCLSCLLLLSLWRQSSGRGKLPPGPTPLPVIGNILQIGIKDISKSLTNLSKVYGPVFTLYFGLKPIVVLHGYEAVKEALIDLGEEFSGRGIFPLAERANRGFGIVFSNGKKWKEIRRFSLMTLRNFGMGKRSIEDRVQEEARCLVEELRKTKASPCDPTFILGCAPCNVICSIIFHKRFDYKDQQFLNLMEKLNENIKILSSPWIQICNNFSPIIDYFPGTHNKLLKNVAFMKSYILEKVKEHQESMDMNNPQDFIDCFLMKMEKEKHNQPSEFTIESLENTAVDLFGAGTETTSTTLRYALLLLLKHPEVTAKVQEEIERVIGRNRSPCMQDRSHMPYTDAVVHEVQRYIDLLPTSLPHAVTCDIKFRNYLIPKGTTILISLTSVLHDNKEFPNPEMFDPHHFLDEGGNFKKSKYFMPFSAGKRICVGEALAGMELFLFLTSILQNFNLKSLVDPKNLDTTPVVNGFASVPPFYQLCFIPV

[8] = Luminescence Cell-Based Dose Retest to Confirm Inhibitors of Cancer Stem Cells. [Related pubchem assays (depositor defined):AID2717, AID2721]; format: functional; settings: Homo sapiens
[9] = target: Cytochrome P450 3A4 (Homo sapiens, UniProt P08684);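 note: CYP3A4 tested as one member of a cytochrome P450 panel screen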
Sequence of Cytochrome P450 3A4 (P08684 whole entry): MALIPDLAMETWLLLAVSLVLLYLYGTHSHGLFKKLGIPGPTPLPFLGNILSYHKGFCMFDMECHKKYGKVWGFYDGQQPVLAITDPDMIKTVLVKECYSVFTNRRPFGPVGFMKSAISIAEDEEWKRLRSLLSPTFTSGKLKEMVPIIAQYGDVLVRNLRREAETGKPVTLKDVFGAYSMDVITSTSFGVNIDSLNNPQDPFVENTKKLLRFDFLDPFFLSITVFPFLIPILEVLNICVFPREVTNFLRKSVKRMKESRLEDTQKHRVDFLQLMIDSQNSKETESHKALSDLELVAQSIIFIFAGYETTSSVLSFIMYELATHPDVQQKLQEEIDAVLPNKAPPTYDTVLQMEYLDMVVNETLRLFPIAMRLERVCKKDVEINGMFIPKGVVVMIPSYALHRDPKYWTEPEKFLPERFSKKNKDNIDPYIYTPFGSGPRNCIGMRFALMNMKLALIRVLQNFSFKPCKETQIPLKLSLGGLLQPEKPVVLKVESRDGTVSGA

SMILES | AC50 [4] | AC50 [8] | further results
O=[N+]([O-])c1cc([N+](=O)[O-])c(Oc2cccc(Cl)c2Cl)cc1NN1CCCCC1 |  |  | EC50 [1]: 11.8 µM (active); EC50 [2]: > 120 µM (not active); EC50 [3]: 58.3 µM (active)
CN(C)c1ncc2nc(-c3ccccc3)c(=O)n(-c3ccccc3)c2n1 | 0.398 µM (inconclusive) |  | 
O=C(Nc1ccccc1)N1CCCC2(CCN(C(=O)c3cc(C(F)(F)F)cc(C(F)(F)F)c3)CC2)C1 | 31.6 µM (inconclusive) |  | 
C=C(CC1([C@@H](NP(=O)(c2ccccc2)c2ccccc2)[C@H]2C[C@@H]2CCCC)CC1)c1cccc(OC)c1 | 12.6 µM (inconclusive) |  | AC50 ([5]; read-out: AC50): 15.8 µM (inconclusive); AC50 [6]: 39.8 µM (inconclusive); AC50 [7]: 39.8 µM (inconclusive)
CCCCOc1ccc(C(=O)Nc2ccc3c(c2)OCO3)cc1 |  | 1.46 µM (active) | 
CC1CCN(c2ccc(NC(=S)NC(=O)c3ccco3)cc2)CC1 | 28.2 µM (inconclusive) |  | AC50 ([5]; read-out: AC50): 3.98 µM (inconclusive); AC50 [9]: 17.8 µM (inconclusive); AC50 [7]: 1.41 µM (inconclusive)
Cc1cccc(NC(S)=NNC(=O)CCn2cc(C)cn2)c1 | 25.1 µM (inconclusive) |  | AC50 [5]: inconclusive
CC(=O)Oc1ccc(C2=NN(c3ccccc3)C(c3ccccc3)C2)cc1 (stereo not given) |  | 2.63 µM (active) | 
Cc1ccc(Nc2cc(C)c3ccc(O)cc3n2)cc1C |  | 4.45 µM (active) | 
Cc1ccc(CN2CCSc3ccc(C(=O)NCc4ccco4)cc32)cc1 |  | 12.1 µM (active) | 
COc1ccccc1CN1CCCC2(CCN(C(C)=O)CC2)C1 | 25.1 µM (inconclusive) |  | 
CC(=O)Nc1ccc2c(c1)/C(=C/c1ccc([N+](C)(C)C)cc1)c1ccccc1-2 | 1.58 µM (inconclusive) |  | AC50 [7]: 3.16 µM (inconclusive)
O=C1N[C@@]2(CN3CCC2CC3)C(=O)N1CN(Cc1ccccc1)c1ccccc1 | 0.398 µM (inconclusive) |  | AC50 ([5]; read-out: AC50): 1.58 µM (inconclusive)
O=[N+]([O-])c1ccc(COc2ccc(-c3[nH]ncc3-c3ccccc3)c(O)c2)cc1 |  | 4.73 µM (active) | 
COc1ccc(C)cc1NC(=O)CN1CCN(S(=O)(=O)c2ccc(F)cc2)CC1 | 0.0398 µM (inconclusive) |  | 
Cn1c(=O)c(C(=O)NNC(=O)c2ccc(Br)cc2)c(O)c2ccccc21 |  | 3.03 µM (active) | 
Cc1cccc(-n2ncc3c(N4CCCc5ccccc54)ncnc32)c1 |  | 7.31 µM (active) | 
Cc1ccc(C(=O)NC(=S)Nc2ccc(S(=O)(=O)N3CCN(C)CC3)cc2)cc1 | 12.6 µM (inconclusive) |  | AC50 [9]: 0.891 µM (inconclusive)
